Data published in patent US7192906B2, “Substituted pyrazole derivatives, production process thereof, and herbicide compositions containing the derivatives” (SDS Biotech K.K., priority 2001, dated 2007).

Assays:
Type in all cases: in vivo
[1] = tested on: Digitaria adscendens; assay: Test Example 1 upland field foliage treatment; settings: Table 4, upland field foliage treatment, index 0-5
Method in brief: (§1)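 Post-emergence foliar spray, 1 kg a.i./ha, wettable powder diluted in water, applied 14 d after sowing in upland soil. Rating 21 d post-application, 0–5 scale: 5 ≥90%, 4 70–<90%, 3 50–<70%, 2 30–<50%, 1 10–<30%, 0 <10% effect or injury.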

[2] = tested on: Stellaria media; assay: Test Example 1 upland field foliage treatment; settings: Table 4, upland field foliage treatment, index 0-5
Method in brief: as §1

[3] = tested on: Chenopodium album; assay: Test Example 1 upland field foliage treatment; settings: Table 4, upland field foliage treatment, index 0-5
Method in brief: as §1

[4] = tested on: Setaria viridis; assay: Test Example 1 upland field foliage treatment; settings: Table 4, upland field foliage treatment, index 0-5
Method in brief: as §1

[5] = tested on: Digitaria adscendens; assay: Test Example 2 upland soil treatment; settings: Table 5, upland soil treatment, index 0-5
Method in brief: (§2)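 Seeds are sown into upland soil and covered by roughly 1 cm of soil, then the compound, formulated as a wettable powder and diluted with water, is applied uniformly to the soil surface the following day at 1 kg active ingredient per hectare. Herbicidal effect or phytotoxicity is graded 0 to 5 after 21 days.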

[6] = tested on: Stellaria media; assay: Test Example 2 upland soil treatment; settings: Table 5, upland soil treatment, index 0-5
Method in brief: as §2

[7] = tested on: Chenopodium album; assay: Test Example 2 upland soil treatment; settings: Table 5, upland soil treatment, index 0-5
Method in brief: as §2

[8] = tested on: Setaria viridis; assay: Test Example 2 upland soil treatment; settings: Table 5, upland soil treatment, index 0-5
Method in brief: as §2

[9] = tested on: soybean (Glycine max); assay: Test Example 1 upland field foliage treatment, crop phytotoxicity; settings: Table 4, upland field foliage treatment, index 0-5
Method in brief: as §1

[10] = tested on: wheat (Triticum aestivum); assay: as above; settings: Table 4, upland field foliage treatment, index 0-5
Method in brief: as §1

[11] = tested on: Monochoria vaginalis; assay: Test Example 3 paddy field treatment; settings: paddy field treatment, wettable powder, active ingredient 1 kg per hectare, 21st day after the dropping, index 0-5
Method in brief: (§3)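 Scoring used a 0–5 scale of herbicidal effect or phytotoxicity, from <10% to ≥90%, taken 21 days after treatment. Treatment was 1 kg a.i./ha as diluted wettable powder dripped onto 4 cm-deep flooded pots sown with the weeds, 10 days after transplanting two-leaf Koshihikari rice.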

[12] = tested on: Ammannia multiflora; assay: Test Example 3 paddy field treatment; settings: paddy field treatment, wettable powder, active ingredient 1 kg per hectare, 21st day after the dropping, index 0-5
Method in brief: as §3

[13] = tested on: Echinochloa crusgalli; assay: Test Example 3 paddy field treatment; settings: paddy field treatment, wettable powder, active ingredient 1 kg per hectare, 21st day after the dropping, index 0-5
Method in brief: as §3

[14] = tested on: Scirpus juncoides; assay: Test Example 3 paddy field treatment; settings: paddy field treatment, wettable powder, active ingredient 1 kg per hectare, 21st day after the dropping, index 0-5
Method in brief: as §3

[15] = tested on: Rice (Oryza sativa); assay: Test Example 3 paddy field treatment, crop phytotoxicity; settings: paddy field treatment, transplanted rice Koshihikari, wettable powder, active ingredient 1 kg per hectare, 21st day after the dropping, index 0-5
Method in brief: as §3

[16] = tested on: soybean (Glycine max); assay: Test Example 2 upland soil treatment, crop phytotoxicity; settings: Table 5, upland soil treatment, index 0-5
Method in brief: as §2

[17] = tested on: wheat (Triticum aestivum); assay: as above; settings: Table 5, upland soil treatment, index 0-5
Method in brief: as §2

SMILES	Herbicidal activity DA: Digitaria adscendens [1]	Herbicidal activity SM: Stellaria media [2]	Herbicidal activity CA: Chenopodium album [3]	Herbicidal activity SV: Setaria viridis [4]	Herbicidal activity DA: Digitaria adscendens [5]	Herbicidal activity SM: Stellaria media [6]	Herbicidal activity CA: Chenopodium album [7]	Herbicidal activity SV: Setaria viridis [8]	Herbicidal activity (phytotoxicity) GM: Soybean (Glycine max) [9]	Herbicidal activity (phytotoxicity) TA: Wheat (Triticum aestivum) [10]	Herbicidal activity MV [11]	Herbicidal activity AM [12]	Herbicidal activity EC [13]	Herbicidal activity SJ [14]	Herbicidal activity OS (phytotoxicity to rice) [15]	Herbicidal activity (phytotoxicity) GM: Soybean (Glycine max) [16]	Herbicidal activity (phytotoxicity) TA: Wheat (Triticum aestivum) [17]
CNC(=O)C(Cn1cc(C)c(-c2ccc(C)cc2)n1)=NOC [Compound 37]	5 (herbicidal effect of not less than 90%, or phytotoxicity of 90% or more)	5 (herbicidal effect of not less than 90%, or phytotoxicity of 90% or more)	5 (herbicidal effect of not less than 90%, or phytotoxicity of 90% or more)	5 (herbicidal effect of not less than 90%, or phytotoxicity of 90% or more)	5 (herbicidal effect of not less than 90%, or phytotoxicity of 90% or more)	5 (herbicidal effect of not less than 90%, or phytotoxicity of 90% or more)	5 (herbicidal effect of not less than 90%, or phytotoxicity of 90% or more)	5 (herbicidal effect of not less than 90%, or phytotoxicity of 90% or more)	0 (herbicidal effect of not less than 0% and less than 10%, or phytotoxicity of 0% or more and less than 10%)	0 (herbicidal effect of not less than 0% and less than 10%, or phytotoxicity of 0% or more and less than 10%)	5 (herbicidal effect of not less than 90%, or phytotoxicity of 90% or more)	5 (herbicidal effect of not less than 90%, or phytotoxicity of 90% or more)	5 (herbicidal effect of not less than 90%, or phytotoxicity of 90% or more)	5 (herbicidal effect of not less than 90%, or phytotoxicity of 90% or more)	1 (herbicidal effect of not less than 10% and less than 30%, or phytotoxicity of 10% or more and less than 30%)	0 (herbicidal effect of not less than 0% and less than 10%, or phytotoxicity of 0% or more and less than 10%)	0 (herbicidal effect of not less than 0% and less than 10%, or phytotoxicity of 0% or more and less than 10%)
CNC(=O)C(Cn1cc(C)c(-c2ccc(OC)cc2)n1)=NOC [Compound 41, 2-methoxyimino-3-((4′-methoxyphenyl)-4-methyl-pyrazole)-1-yl-propanoic acid-N-methylamide]	5 (herbicidal effect of not less than 90%, or phytotoxicity of 90% or more)	5 (herbicidal effect of not less than 90%, or phytotoxicity of 90% or more)	5 (herbicidal effect of not less than 90%, or phytotoxicity of 90% or more)	5 (herbicidal effect of not less than 90%, or phytotoxicity of 90% or more)	5 (herbicidal effect of not less than 90%, or phytotoxicity of 90% or more)	5 (herbicidal effect of not less than 90%, or phytotoxicity of 90% or more)	5 (herbicidal effect of not less than 90%, or phytotoxicity of 90% or more)	5 (herbicidal effect of not less than 90%, or phytotoxicity of 90% or more)	1 (herbicidal effect of not less than 10% and less than 30%, or phytotoxicity of 10% or more and less than 30%)	0 (herbicidal effect of not less than 0% and less than 10%, or phytotoxicity of 0% or more and less than 10%)	5 (herbicidal effect of not less than 90%, or phytotoxicity of 90% or more)	5 (herbicidal effect of not less than 90%, or phytotoxicity of 90% or more)	5 (herbicidal effect of not less than 90%, or phytotoxicity of 90% or more)	5 (herbicidal effect of not less than 90%, or phytotoxicity of 90% or more)	0 (herbicidal effect of not less than 0% and less than 10%, or phytotoxicity of 0% or more and less than 10%)	1 (herbicidal effect of not less than 10% and less than 30%, or phytotoxicity of 10% or more and less than 30%)	0 (herbicidal effect of not less than 0% and less than 10%, or phytotoxicity of 0% or more and less than 10%)
CNC(=O)C(Cn1cc(C)c(-c2cccc(F)c2)n1)=NOC [Compound 43]	5 (herbicidal effect of not less than 90%, or phytotoxicity of 90% or more)	5 (herbicidal effect of not less than 90%, or phytotoxicity of 90% or more)	5 (herbicidal effect of not less than 90%, or phytotoxicity of 90% or more)	5 (herbicidal effect of not less than 90%, or phytotoxicity of 90% or more)	5 (herbicidal effect of not less than 90%, or phytotoxicity of 90% or more)	5 (herbicidal effect of not less than 90%, or phytotoxicity of 90% or more)	5 (herbicidal effect of not less than 90%, or phytotoxicity of 90% or more)	5 (herbicidal effect of not less than 90%, or phytotoxicity of 90% or more)	0 (herbicidal effect of not less than 0% and less than 10%, or phytotoxicity of 0% or more and less than 10%)	0 (herbicidal effect of not less than 0% and less than 10%, or phytotoxicity of 0% or more and less than 10%)	5 (herbicidal effect of not less than 90%, or phytotoxicity of 90% or more)	5 (herbicidal effect of not less than 90%, or phytotoxicity of 90% or more)	5 (herbicidal effect of not less than 90%, or phytotoxicity of 90% or more)	5 (herbicidal effect of not less than 90%, or phytotoxicity of 90% or more)	1 (herbicidal effect of not less than 10% and less than 30%, or phytotoxicity of 10% or more and less than 30%)	1 (herbicidal effect of not less than 10% and less than 30%, or phytotoxicity of 10% or more and less than 30%)	0 (herbicidal effect of not less than 0% and less than 10%, or phytotoxicity of 0% or more and less than 10%)
